Target: NEK7 (Homo sapiens, UniProt Q8TDX7)
Assay: biochemical in vitro kinase assay (Reaction Biology), 10-dose IC50, […] ATP

Sequence of NEK7 (Q8TDX7 whole entry): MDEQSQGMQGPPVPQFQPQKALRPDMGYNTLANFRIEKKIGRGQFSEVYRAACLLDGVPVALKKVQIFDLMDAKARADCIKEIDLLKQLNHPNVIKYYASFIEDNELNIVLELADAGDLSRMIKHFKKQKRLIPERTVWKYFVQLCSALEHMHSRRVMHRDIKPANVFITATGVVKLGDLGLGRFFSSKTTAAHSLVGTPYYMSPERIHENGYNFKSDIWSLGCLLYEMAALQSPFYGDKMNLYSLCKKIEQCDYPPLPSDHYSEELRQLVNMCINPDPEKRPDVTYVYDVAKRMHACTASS

IC50: 2850 nM
Compound: CCN1CCN(c2ccc(Nc3ncc4scc(-c5cccc(C(=O)NCCN(C)C)c5)c4n3)cc2)CC1 [SLC3037, N-(2-(Dimethylamino)ethyl)-3-(2-((4-(4-ethylpiperazin-1-yl)phenyl)amino)thieno[3,2-d]pyrimidin-7-yl)benzamide]

Source: publication PMC10869544 (Frontiers in Immunology, 2024)
